Reference: the kinase profiling compilation of Christmann-Franck et al. (2016)

What was measured:
Experiment in all cases: radiometric filter-binding kinase assay, Kinase HotSpot
Details in all cases: compound 0.5 µM; ATP 10 µM
[1] = target: MAPK9 (human) (UniProt P45984)
[2] = target: PAK3 (human) (UniProt O75914)
[3] = target: RPS6KA4 KD2 (human) (UniProt O75676)
[4] = target: MKNK2 (human) (UniProt Q9HBH9)
[5] = target: ADRBK2 (human) (UniProt P35626)
[6] = target: EPHA2 (human) (UniProt P29317)
[7] = target: EPHA5 (human) (UniProt P54756)
Sequence of EPHA5 (human) (P54756 whole entry, looked up): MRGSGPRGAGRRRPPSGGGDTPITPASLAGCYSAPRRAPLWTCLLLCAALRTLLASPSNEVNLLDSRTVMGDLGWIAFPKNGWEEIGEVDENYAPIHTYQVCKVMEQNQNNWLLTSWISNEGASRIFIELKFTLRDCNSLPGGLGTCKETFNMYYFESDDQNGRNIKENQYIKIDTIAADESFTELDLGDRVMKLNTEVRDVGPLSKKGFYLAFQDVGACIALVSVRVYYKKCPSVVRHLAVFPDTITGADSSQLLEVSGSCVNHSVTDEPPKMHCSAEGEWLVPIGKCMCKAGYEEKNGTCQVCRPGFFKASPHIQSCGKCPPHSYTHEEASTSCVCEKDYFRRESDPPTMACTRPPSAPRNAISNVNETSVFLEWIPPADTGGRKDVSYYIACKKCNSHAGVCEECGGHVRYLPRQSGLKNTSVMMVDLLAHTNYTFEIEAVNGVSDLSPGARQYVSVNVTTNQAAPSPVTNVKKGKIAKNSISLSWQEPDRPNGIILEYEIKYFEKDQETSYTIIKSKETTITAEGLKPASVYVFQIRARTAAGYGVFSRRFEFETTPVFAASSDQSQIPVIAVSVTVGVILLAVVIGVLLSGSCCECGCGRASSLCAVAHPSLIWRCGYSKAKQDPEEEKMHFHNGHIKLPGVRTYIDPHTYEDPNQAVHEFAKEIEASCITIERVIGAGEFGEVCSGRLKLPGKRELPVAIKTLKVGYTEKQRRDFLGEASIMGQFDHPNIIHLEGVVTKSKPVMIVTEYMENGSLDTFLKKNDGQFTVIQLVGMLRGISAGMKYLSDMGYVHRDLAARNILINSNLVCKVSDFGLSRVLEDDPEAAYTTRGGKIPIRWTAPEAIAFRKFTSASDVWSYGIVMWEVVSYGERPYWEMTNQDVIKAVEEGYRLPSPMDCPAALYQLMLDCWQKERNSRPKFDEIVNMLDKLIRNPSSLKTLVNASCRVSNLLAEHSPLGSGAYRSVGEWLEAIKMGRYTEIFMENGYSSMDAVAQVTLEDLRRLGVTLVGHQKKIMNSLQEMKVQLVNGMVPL

[8] = target: CDK5 CDK5R1 p25 (human) (UniProt Q00535+Q15078)
[9] = target: CAMK1 (human) (UniProt Q14012)
Sequence of CAMK1 (human) (Q14012 whole entry, looked up): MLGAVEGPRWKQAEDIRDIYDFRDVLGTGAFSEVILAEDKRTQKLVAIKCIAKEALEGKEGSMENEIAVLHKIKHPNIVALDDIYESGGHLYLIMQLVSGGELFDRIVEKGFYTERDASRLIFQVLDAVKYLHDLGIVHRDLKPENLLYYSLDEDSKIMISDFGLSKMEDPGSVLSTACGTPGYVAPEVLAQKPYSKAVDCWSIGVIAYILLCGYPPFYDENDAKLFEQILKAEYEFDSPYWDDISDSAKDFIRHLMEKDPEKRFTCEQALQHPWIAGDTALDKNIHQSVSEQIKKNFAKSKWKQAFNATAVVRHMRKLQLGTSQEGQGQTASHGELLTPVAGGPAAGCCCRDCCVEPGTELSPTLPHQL

[10] = target: PDGFRB (human) (UniProt P09619)
[11] = target: MAP3K3 (human) (UniProt Q99759)
[12] = target: FGR (human) (UniProt P09769)
[13] = target: SYK (human) (UniProt P43405)
[14] = target: PRKCI (human) (UniProt P41743)
Sequence of PRKCI (human) (P41743 whole entry, looked up): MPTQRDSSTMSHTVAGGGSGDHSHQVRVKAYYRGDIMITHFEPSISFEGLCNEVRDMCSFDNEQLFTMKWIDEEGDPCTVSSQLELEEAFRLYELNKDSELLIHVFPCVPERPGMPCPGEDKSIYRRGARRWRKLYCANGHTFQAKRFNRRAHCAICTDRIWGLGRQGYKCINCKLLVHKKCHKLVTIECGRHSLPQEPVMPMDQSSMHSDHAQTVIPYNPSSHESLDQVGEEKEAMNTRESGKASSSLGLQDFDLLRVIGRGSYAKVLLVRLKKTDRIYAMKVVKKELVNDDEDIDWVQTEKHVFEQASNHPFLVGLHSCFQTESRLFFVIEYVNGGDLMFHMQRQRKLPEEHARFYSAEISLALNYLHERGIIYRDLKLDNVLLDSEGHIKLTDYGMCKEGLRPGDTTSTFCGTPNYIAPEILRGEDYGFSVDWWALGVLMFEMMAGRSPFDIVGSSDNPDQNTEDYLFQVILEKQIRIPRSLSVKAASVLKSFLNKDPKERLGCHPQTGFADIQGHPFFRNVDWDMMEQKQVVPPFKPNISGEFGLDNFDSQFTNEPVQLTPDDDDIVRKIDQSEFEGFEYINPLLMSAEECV

[15] = target: CSNK1G1 (human) (UniProt Q9HCP0)
[16] = target: PAK1 (human) (UniProt Q13153)
[17] = target: TSSK2 (human) (UniProt Q96PF2)
[18] = target: ROCK2 (human) (UniProt O75116)
[19] = target: GRK6 (human) (UniProt P43250)
[20] = target: WNK3 (human) (UniProt Q9BYP7)
[21] = target: PAK4 (human) (UniProt O96013)
[22] = target: MET (human) (UniProt P08581)
[23] = target: IKBKB (human) (UniProt O14920)
[24] = target: MAPK13 (human) (UniProt O15264)
[25] = target: PRKCB2 (human) (UniProt P05771)
[26] = target: CDC42BPA (human) (UniProt Q5VT25)
[27] = target: INSRR (human) (UniProt P14616)
[28] = target: FER (human) (UniProt P16591)
[29] = target: ROCK1 (human) (UniProt Q13464)
[30] = target: PRKX (human) (UniProt P51817)
[31] = target: PAK2 (human) (UniProt Q13177)
[32] = target: CDK9 CCNT1 (human) (UniProt P50750+O60563)
[33] = target: CHUK (human) (UniProt O15111)
[34] = target: RPS6KB2 (human) (UniProt Q9UBS0)
[35] = target: CLK3 (human) (UniProt P49761)
[36] = target: MAPKAPK5 (human) (UniProt Q8IW41)
[37] = target: VRK1 (human) (UniProt Q99986)
[38] = target: AKT3 (human) (UniProt Q9Y243)
[39] = target: PRKG2 (human) (UniProt Q13237)
Sequence of PRKG2 (human) (Q13237 whole entry, looked up): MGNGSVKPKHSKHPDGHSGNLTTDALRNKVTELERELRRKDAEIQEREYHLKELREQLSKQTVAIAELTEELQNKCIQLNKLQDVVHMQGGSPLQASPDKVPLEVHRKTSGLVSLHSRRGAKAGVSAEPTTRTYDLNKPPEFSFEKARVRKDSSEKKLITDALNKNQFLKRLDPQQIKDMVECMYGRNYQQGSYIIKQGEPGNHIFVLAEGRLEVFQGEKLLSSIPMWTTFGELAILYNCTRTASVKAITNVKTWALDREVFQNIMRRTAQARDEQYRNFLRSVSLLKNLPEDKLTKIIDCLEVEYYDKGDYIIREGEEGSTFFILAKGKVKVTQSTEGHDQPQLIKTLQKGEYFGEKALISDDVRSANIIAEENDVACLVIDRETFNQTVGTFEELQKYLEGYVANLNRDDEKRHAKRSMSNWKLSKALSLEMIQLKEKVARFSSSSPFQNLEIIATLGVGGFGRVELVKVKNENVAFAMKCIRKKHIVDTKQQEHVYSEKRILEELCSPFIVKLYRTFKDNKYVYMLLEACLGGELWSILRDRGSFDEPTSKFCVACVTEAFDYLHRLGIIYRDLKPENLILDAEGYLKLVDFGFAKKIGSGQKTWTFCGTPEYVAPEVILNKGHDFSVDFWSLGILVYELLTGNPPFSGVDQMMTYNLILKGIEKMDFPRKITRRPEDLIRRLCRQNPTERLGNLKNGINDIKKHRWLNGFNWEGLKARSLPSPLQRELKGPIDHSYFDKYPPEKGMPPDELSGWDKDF

[40] = target: ALK (human) (UniProt Q9UM73)
Sequence of ALK (human) (Q9UM73 whole entry, looked up): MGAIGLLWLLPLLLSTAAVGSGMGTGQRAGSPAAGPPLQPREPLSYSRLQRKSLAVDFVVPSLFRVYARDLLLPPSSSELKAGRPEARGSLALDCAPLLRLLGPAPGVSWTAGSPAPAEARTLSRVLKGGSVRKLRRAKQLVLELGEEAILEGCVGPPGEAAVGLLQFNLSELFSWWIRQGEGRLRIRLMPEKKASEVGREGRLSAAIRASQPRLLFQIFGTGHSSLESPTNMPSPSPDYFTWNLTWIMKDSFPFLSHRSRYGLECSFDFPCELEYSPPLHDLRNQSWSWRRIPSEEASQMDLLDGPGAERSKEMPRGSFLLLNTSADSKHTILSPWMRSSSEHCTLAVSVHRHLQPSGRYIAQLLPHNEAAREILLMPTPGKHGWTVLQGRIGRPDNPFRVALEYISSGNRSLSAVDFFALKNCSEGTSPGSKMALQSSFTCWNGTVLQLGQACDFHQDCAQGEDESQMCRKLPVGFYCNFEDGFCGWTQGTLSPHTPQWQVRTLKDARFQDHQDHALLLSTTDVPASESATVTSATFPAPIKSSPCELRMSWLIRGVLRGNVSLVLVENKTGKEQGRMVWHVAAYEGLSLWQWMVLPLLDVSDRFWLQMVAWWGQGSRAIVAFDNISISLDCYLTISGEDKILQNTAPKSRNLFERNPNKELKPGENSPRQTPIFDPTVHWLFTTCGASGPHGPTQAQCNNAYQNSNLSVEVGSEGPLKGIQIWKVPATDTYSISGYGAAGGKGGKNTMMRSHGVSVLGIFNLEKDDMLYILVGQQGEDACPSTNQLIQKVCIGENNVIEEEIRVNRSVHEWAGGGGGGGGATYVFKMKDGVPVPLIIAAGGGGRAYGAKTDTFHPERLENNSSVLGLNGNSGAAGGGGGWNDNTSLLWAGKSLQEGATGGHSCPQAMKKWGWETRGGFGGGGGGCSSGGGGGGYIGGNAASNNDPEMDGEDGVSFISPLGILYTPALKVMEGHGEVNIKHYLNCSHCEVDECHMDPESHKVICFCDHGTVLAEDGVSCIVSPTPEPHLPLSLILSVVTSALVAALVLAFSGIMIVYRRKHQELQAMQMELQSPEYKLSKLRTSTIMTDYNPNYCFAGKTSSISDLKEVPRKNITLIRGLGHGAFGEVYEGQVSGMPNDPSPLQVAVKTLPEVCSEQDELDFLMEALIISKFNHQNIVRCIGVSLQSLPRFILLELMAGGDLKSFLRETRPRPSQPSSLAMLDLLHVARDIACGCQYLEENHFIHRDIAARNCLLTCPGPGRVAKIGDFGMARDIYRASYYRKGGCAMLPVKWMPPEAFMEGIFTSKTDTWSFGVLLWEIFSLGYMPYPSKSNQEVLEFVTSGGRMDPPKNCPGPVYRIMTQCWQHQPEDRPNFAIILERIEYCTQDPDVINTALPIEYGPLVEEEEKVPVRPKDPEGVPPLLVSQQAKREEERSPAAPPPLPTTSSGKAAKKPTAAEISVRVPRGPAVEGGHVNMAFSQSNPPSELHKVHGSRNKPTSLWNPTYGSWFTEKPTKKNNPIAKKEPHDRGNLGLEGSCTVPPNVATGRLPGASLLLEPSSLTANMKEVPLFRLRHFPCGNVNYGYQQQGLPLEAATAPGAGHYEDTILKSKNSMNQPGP

[41] = target: SRPK1 (human) (UniProt Q96SB4)
[42] = target: MAPK8 (human) (UniProt P45983)
Sequence of MAPK8 (human) (P45983 whole entry, looked up): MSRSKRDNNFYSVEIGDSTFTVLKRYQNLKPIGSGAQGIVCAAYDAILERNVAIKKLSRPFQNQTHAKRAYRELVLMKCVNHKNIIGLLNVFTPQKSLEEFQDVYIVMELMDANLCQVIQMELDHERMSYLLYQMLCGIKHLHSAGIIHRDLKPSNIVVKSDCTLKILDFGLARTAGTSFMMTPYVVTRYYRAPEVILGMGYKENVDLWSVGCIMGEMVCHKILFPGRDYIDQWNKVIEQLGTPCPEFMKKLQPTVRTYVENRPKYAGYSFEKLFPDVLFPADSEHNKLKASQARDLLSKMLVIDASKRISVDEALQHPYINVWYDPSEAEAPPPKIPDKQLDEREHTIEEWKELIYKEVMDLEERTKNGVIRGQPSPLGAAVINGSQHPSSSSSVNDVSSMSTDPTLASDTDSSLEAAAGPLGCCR

## COc1cc2c(cc1OC)-c1[nH]nc(Nc3cccc(F)c3)c1C2
[1]
  residual activity: 75.9%
[2]
  residual activity: 93.1%
[3]
  residual activity: 99.8%
[4]
  residual activity: 91.5%
[5]
  residual activity: 98.4%
[6]
  residual activity: 93.8%
[7]
  residual activity: 93.4%
[8]
  residual activity: 89%
[9]
  residual activity: 98.4%
[10]
  residual activity: 45.3%
[11]
  residual activity: 103%
[12]
  residual activity: 47.2%
[13]
  residual activity: 103%
[14]
  residual activity: 95.5%
[15]
  residual activity: 77.8%
[16]
  residual activity: 96.9%
[17]
  residual activity: 75.1%
[18]
  residual activity: 95.2%
[19]
  residual activity: 89.4%
[20]
  residual activity: 104%
[21]
  residual activity: 89.9%
[22]
  residual activity: 97.8%
[23]
  residual activity: 98.2%
[24]
  residual activity: 99.7%
[25]
  residual activity: 103%
[26]
  residual activity: 119%
[27]
  residual activity: 99.2%
[28]
  residual activity: 94%
[29]
  residual activity: 87.5%
[30]
  residual activity: 103%
[31]
  residual activity: 99.6%
[32]
  residual activity: 97.6%
[33]
  residual activity: 91.4%
[34]
  residual activity: 100%
[35]
  residual activity: 96.5%
[36]
  residual activity: 82.3%
[37]
  residual activity: 89.9%
[38]
  residual activity: 96.1%
[39]
  residual activity: 92.5%
[40]
  residual activity: 103%
[41]
  residual activity: 101%
[42]
  residual activity: 85.2%

## O=c1c2ccccc2[nH]c(=S)n1CCN1CCC(=C(c2ccc(F)cc2)c2ccc(F)cc2)CC1
[1]
  residual activity: 97%
[2]
  residual activity: 94.6%
[3]
  residual activity: 103%
[4]
  residual activity: 89.5%
[5]
  residual activity: 102%
[6]
  residual activity: 105%
[7]
  residual activity: 112%
[8]
  residual activity: 93.5%
[9]
  residual activity: 98.6%
[10]
  residual activity: 112%
[11]
  residual activity: 102%
[12]
  residual activity: 95.4%
[13]
  residual activity: 93.2%
[14]
  residual activity: 96.3%
[15]
  residual activity: 92.5%
[16]
  residual activity: 94.6%
[17]
  residual activity: 101%
[18]
  residual activity: 98.8%
[19]
  residual activity: 111%
[20]
  residual activity: 107%
[21]
  residual activity: 101%
[22]
  residual activity: 114%
[23]
  residual activity: 99.5%
[24]
  residual activity: 106%
[25]
  residual activity: 98.2%
[26]
  residual activity: 97.7%
[27]
  residual activity: 98.3%
[28]
  residual activity: 95.2%
[29]
  residual activity: 97.2%
[30]
  residual activity: 106%
[31]
  residual activity: 103%
[32]
  residual activity: 102%
[33]
  residual activity: 95%
[34]
  residual activity: 102%
[35]
  residual activity: 101%
[36]
  residual activity: 101%
[37]
  residual activity: 95.9%
[38]
  residual activity: 99.4%
[39]
  residual activity: 104%
[40]
  residual activity: 104%
[41]
  residual activity: 97.8%
[42]
  residual activity: 98.9%

## c1ccc(-c2cnc(Nc3ccc(OCCN4CCCC4)cc3)s2)cc1
[1]
  residual activity: 144%
[2]
  residual activity: 99.1%
[3]
  residual activity: 96.1%
[4]
  residual activity: 18.6%
[5]
  residual activity: 103%
[6]
  residual activity: 108%
[7]
  residual activity: 97%
[8]
  residual activity: 80.7%
[9]
  residual activity: 86.3%
[10]
  residual activity: 28.5%
[11]
  residual activity: 99.2%
[12]
  residual activity: 65.7%
[13]
  residual activity: 89.2%
[14]
  residual activity: 93.1%
[15]
  residual activity: 94.7%
[16]
  residual activity: 97%
[17]
  residual activity: 89%
[18]
  residual activity: 91.7%
[19]
  residual activity: 96.1%
[20]
  residual activity: 99%
[21]
  residual activity: 106%
[22]
  residual activity: 89.7%
[23]
  residual activity: 98.1%
[24]
  residual activity: 104%
[25]
  residual activity: 104%
[26]
  residual activity: 91%
[27]
  residual activity: 99.6%
[28]
  residual activity: 90%
[29]
  residual activity: 102%
[30]
  residual activity: 101%
[31]
  residual activity: 94.8%
[32]
  residual activity: 66.1%
[33]
  residual activity: 93.3%
[34]
  residual activity: 92.7%
[35]
  residual activity: 94.3%
[36]
  residual activity: 83.4%
[37]
  residual activity: 89.1%
[39]
  residual activity: 106%
[40]
  residual activity: 97%
[41]
  residual activity: 99.9%
[42]
  residual activity: 92.4%

## CCCCc1c(-c2ccc(O)cc2)[nH]c2nccnc12
[1]
  residual activity: 90.2%
[2]
  residual activity: 97.7%
[3]
  residual activity: 87.5%
[4]
  residual activity: 107%
[5]
  residual activity: 96.2%
[6]
  residual activity: 81.7%
[7]
  residual activity: 96.4%
[9]
  residual activity: 92.5%
[10]
  residual activity: 91.4%
[11]
  residual activity: 127%
[12]
  residual activity: 63%
[13]
  residual activity: 53.5%
[14]
  residual activity: 99.4%
[15]
  residual activity: 93.1%
[16]
  residual activity: 81.4%
[17]
  residual activity: 96.7%
[18]
  residual activity: 97.5%
[19]
  residual activity: 83.5%
[20]
  residual activity: 90.3%
[21]
  residual activity: 108%
[22]
  residual activity: 82.7%
[23]
  residual activity: 103%
[24]
  residual activity: 101%
[25]
  residual activity: 118%
[26]
  residual activity: 99.3%
[27]
  residual activity: 86.6%
[28]
  residual activity: 55.6%
[29]
  residual activity: 98.6%
[30]
  residual activity: 110%
[31]
  residual activity: 84.5%
[32]
  residual activity: 45.9%
[33]
  residual activity: 77.6%
[34]
  residual activity: 102%
[35]
  residual activity: 121%
[36]
  residual activity: 93.1%
[37]
  residual activity: 87.9%
[38]
  residual activity: 95.8%
[39]
  residual activity: 92.6%
[40]
  residual activity: 85%
[41]
  residual activity: 101%
[42]
  residual activity: 81.9%
